Patent US9504729B2, “Antiangiogenic small molecules and methods of use” (The United States of America, as represented by the …, priority 2009, dated 2016)

Tested on: angiogenesis genes in dermal microvascular endothelial cells
Experiment: Real time RT-PCR of angiogenesis gene expression during endothelial tube formation
Format: cell-based
Conditions: 1 μM SM, 24 hours

## CC1CCN(CC[S-])CC1.O.O.[Cl][Pt+] [compound 292596]
  Log2 fold-change of gene expression: 1839: −0.3
  Log2 fold-change of gene expression: 4247: −0.3
  Log2 fold-change of gene expression: 5569: 0.1
  Log2 fold-change of gene expression: 8131: 0.3
  Log2 fold-change of gene expression: 9569: −2.0
  Log2 fold-change of gene expression: 10988: 0.9
  Log2 fold-change of gene expression: 23001: 0.1
  Log2 fold-change of gene expression: 55332: −8.6
  Log2 fold-change of gene expression: 57722: −0.2
  Log2 fold-change of gene expression: 58488: 0.2
  Log2 fold-change of gene expression: 90780: −0.8
  Log2 fold-change of gene expression: 134265: −1.6
  Log2 fold-change of gene expression: AKT1: −0.8
  Log2 fold-change of gene expression: ANGPT1: 2.2
  Log2 fold-change of gene expression: ANGPT2: 0.8
  Log2 fold-change of gene expression: ANGPTL3: 1.0
  Log2 fold-change of gene expression: ANGPTL4: −3.2
  Log2 fold-change of gene expression: ANPEP: 0.8
  Log2 fold-change of gene expression: ANTXR1: −2.1
  Log2 fold-change of gene expression: APOE: 5.1
  Log2 fold-change of gene expression: ARHGEF1: −1.6
  Log2 fold-change of gene expression: Acvrl1: −1.6
  Log2 fold-change of gene expression: Adcy4: 4.3
  Log2 fold-change of gene expression: BAL1: 1.7
  Log2 fold-change of gene expression: BMP1: −0.4
  Log2 fold-change of gene expression: C1orf54: −2.2
  Log2 fold-change of gene expression: CALD1: 1.6
  Log2 fold-change of gene expression: CCL2: 2.4
  Log2 fold-change of gene expression: CCL11: 2.1
  Log2 fold-change of gene expression: CD248: 0.2
  Log2 fold-change of gene expression: CDH5: −0.2
  Log2 fold-change of gene expression: CENTD3: 0.1
  Log2 fold-change of gene expression: CLIC1: 0.6
  Log2 fold-change of gene expression: COL4A3: 1.9
  Log2 fold-change of gene expression: COL18A1: 2.3
  Log2 fold-change of gene expression: COMT: −0.7
  Log2 fold-change of gene expression: CST4: 0.3
  Log2 fold-change of gene expression: CTTNBP2NL: −3.4
  Log2 fold-change of gene expression: CXCL3: −3.8
  Log2 fold-change of gene expression: CXCL5: 5.6
  Log2 fold-change of gene expression: CXCL6: 2.2
  Log2 fold-change of gene expression: CXCL9: 1.5
  Log2 fold-change of gene expression: CXCL10: 2.5
  Log2 fold-change of gene expression: Calcr1: −4.3
  Log2 fold-change of gene expression: Caskin2: −2.3
  Log2 fold-change of gene expression: Ccbp2: 0.0
  Log2 fold-change of gene expression: Cldn5: −0.6
  Log2 fold-change of gene expression: DGKG: 1.8
  Log2 fold-change of gene expression: DKK3: −0.4
  Log2 fold-change of gene expression: DLL4: −6.6
  Log2 fold-change of gene expression: DUT: −1.2
  Log2 fold-change of gene expression: EFNA1: 3.1
  Log2 fold-change of gene expression: EFNA3: 0.5
  Log2 fold-change of gene expression: EFNB2: −3.4
  Log2 fold-change of gene expression: EGF: 2.2
  Log2 fold-change of gene expression: ENG: −0.3
  Log2 fold-change of gene expression: EPHB4: 0.9
  Log2 fold-change of gene expression: EREG: 9.6
  Log2 fold-change of gene expression: ESAM1: −2.0
  Log2 fold-change of gene expression: EXTL3: −0.5
  Log2 fold-change of gene expression: Egf17: −3.3
  Log2 fold-change of gene expression: Ehd4: −1.0
  Log2 fold-change of gene expression: Entpd1: −8.3
  Log2 fold-change of gene expression: Epas1: 0.3
  Log2 fold-change of gene expression: EphB1: 0.4
  Log2 fold-change of gene expression: Erg: −6.4
  Log2 fold-change of gene expression: FGF1: 4.8
  Log2 fold-change of gene expression: FGF2: 2.5
  Log2 fold-change of gene expression: FGFR3: 2.2
  Log2 fold-change of gene expression: FIGF: 1.7
  Log2 fold-change of gene expression: FLT1: −1.9
  Log2 fold-change of gene expression: Fgd5: −1.0
  Log2 fold-change of gene expression: GPCR124: −6.7
  Log2 fold-change of gene expression: GRRP1: 0.2
  Log2 fold-change of gene expression: Grp116: −3.1
  Log2 fold-change of gene expression: HAND2: 1.7
  Log2 fold-change of gene expression: HGF: 2.2
  Log2 fold-change of gene expression: HIF1A: −2.1
  Log2 fold-change of gene expression: HPSE: −0.3
  Log2 fold-change of gene expression: Hspa12b: −3.3
  Log2 fold-change of gene expression: ID1: 4.0
  Log2 fold-change of gene expression: ID3: 1.0
  Log2 fold-change of gene expression: IFNA1: 2.2
  Log2 fold-change of gene expression: IFNB1: 2.6
  Log2 fold-change of gene expression: IFNG: 6.5
  Log2 fold-change of gene expression: IGF1: 0.6
  Log2 fold-change of gene expression: IL1B: −4.1
  Log2 fold-change of gene expression: IL6: 3.7
  Log2 fold-change of gene expression: IL8: 5.1
  Log2 fold-change of gene expression: ITGAV: −0.9
  Log2 fold-change of gene expression: ITGB3: −1.8
  Log2 fold-change of gene expression: Icam1: 0.5
  Log2 fold-change of gene expression: Icam2: −0.4
  Log2 fold-change of gene expression: JAG1: 0.5
  Log2 fold-change of gene expression: KDR: −1.8
  Log2 fold-change of gene expression: Kifc1: 1.6
  Log2 fold-change of gene expression: LAMAS5: −0.3
  Log2 fold-change of gene expression: LECT1: 1.4
  Log2 fold-change of gene expression: LEP: 2.6
  Log2 fold-change of gene expression: Lasts2: 0.4
  Log2 fold-change of gene expression: Lrrk1: −1.5
  Log2 fold-change of gene expression: MDK: −1.5
  Log2 fold-change of gene expression: MMP2: 1.1
  Log2 fold-change of gene expression: MMP9: 1.8
  Log2 fold-change of gene expression: MMP11: −0.3
  Log2 fold-change of gene expression: MRC2: −0.5
  Log2 fold-change of gene expression: Mmm2: −2.4
  Log2 fold-change of gene expression: Myo1b: −2.0
  Log2 fold-change of gene expression: NID1: −3.6
  Log2 fold-change of gene expression: NM023516: 0.2
  Log2 fold-change of gene expression: NRP1: −2.3
  Log2 fold-change of gene expression: NRP2: −3.2
  Log2 fold-change of gene expression: Notch4: −0.6
  Log2 fold-change of gene expression: Npr3: 0.7
  Log2 fold-change of gene expression: PALD: −1.9
  Log2 fold-change of gene expression: PDCD2: −1.1
  Log2 fold-change of gene expression: PDGFA: 4.0
  Log2 fold-change of gene expression: PECAM1: −1.8
  Log2 fold-change of gene expression: PGF: −1.7
  Log2 fold-change of gene expression: PLAU: −0.2
  Log2 fold-change of gene expression: PLG: −0.4
  Log2 fold-change of gene expression: PNMT: −0.7
  Log2 fold-change of gene expression: PROK2: 2.0
  Log2 fold-change of gene expression: PTGS1: 1.1
  Log2 fold-change of gene expression: PTPRCAP: −0.5
  Log2 fold-change of gene expression: Pltp: 0.5
  Log2 fold-change of gene expression: Ptprb: −1.9
  Log2 fold-change of gene expression: Ptprm: −0.8
  Log2 fold-change of gene expression: RAMP2: −5.0
  Log2 fold-change of gene expression: RASD2: −0.5
  Log2 fold-change of gene expression: Rasip1: −0.5
  Log2 fold-change of gene expression: S1PR1: 0.2
  Log2 fold-change of gene expression: SERPINF1: 0.7
  Log2 fold-change of gene expression: SPHK1: 1.8
  Log2 fold-change of gene expression: STAB1: −0.5
  Log2 fold-change of gene expression: Sdc4: 1.4
  Log2 fold-change of gene expression: Sdpr: 0.8
  Log2 fold-change of gene expression: Slc43a3: 0.6
  Log2 fold-change of gene expression: Slco2a1: −1.0
  Log2 fold-change of gene expression: TEK: 1.3
  Log2 fold-change of gene expression: TGFA: 8.9
  Log2 fold-change of gene expression: TGFB1: −0.8
  Log2 fold-change of gene expression: TGFB2: 2.1
  Log2 fold-change of gene expression: TGFBR1: 1.4
  Log2 fold-change of gene expression: THBS1: −0.1
  Log2 fold-change of gene expression: THBS2: 1.1
  Log2 fold-change of gene expression: THY1: −5.8
  Log2 fold-change of gene expression: TIMP1: 1.4
  Log2 fold-change of gene expression: TIMP2: 0.4
  Log2 fold-change of gene expression: TIMP3: −1.2
  Log2 fold-change of gene expression: TNF: 6.1
  Log2 fold-change of gene expression: TNS1: −0.5
  Log2 fold-change of gene expression: TNS3: 1.3
  Log2 fold-change of gene expression: TRA2B: 0.9
  Log2 fold-change of gene expression: TYMP: −5.5
  Log2 fold-change of gene expression: VEGFA: 0.4
  Log2 fold-change of gene expression: VEGFC: 1.6
  Log2 fold-change of gene expression: VGLL4: −2.8
  Log2 fold-change of gene expression: Vwf: −2.6
  Log2 fold-change of gene expression: copa: −0.5
  Log2 fold-change of gene expression: itbp4: −1.5
  Log2 fold-change of gene expression: ralb: −0.5
  Log2 fold-change of gene expression: stard9: −0.9
1st listing (r49)
  Log2 fold-change of gene expression: B2M: −2.0
1st listing (r50)
  Log2 fold-change of gene expression: HPRT1: −0.5
1st listing (r51)
  Log2 fold-change of gene expression: RPL13A: 1.9
1st listing (r52)
  Log2 fold-change of gene expression: GADPH: 0.3
1st listing (r53)
  Log2 fold-change of gene expression: ACTB: 0.0
1st listing (r74)
  Log2 fold-change of gene expression: PLXDC1: 0.3
1st listing (r91)
  Log2 fold-change of gene expression: TNFAIP2: −0.2
1st listing (r95)
  Log2 fold-change of gene expression: Robo4: −1.2
1st listing (r134)
  Log2 fold-change of gene expression: 151516: 0.3
2nd listing (r92)
  Log2 fold-change of gene expression: TNFAIP2: −0.1
2nd listing (r97)
  Log2 fold-change of gene expression: B2M: −1.6
2nd listing (r98)
  Log2 fold-change of gene expression: HPRT1: 0.1
2nd listing (r99)
  Log2 fold-change of gene expression: RPL13A: 1.5
2nd listing (r100)
  Log2 fold-change of gene expression: GADPH: 0.8
2nd listing (r101)
  Log2 fold-change of gene expression: ACTB: −0.4
2nd listing (r104)
  Log2 fold-change of gene expression: PLXDC1: 0.2
2nd listing (r139)
  Log2 fold-change of gene expression: 151516: 0.3
2nd listing (r188)
  Log2 fold-change of gene expression: Robo4: 0.2
3rd listing (r145)
  Log2 fold-change of gene expression: B2M: −0.4
3rd listing (r146)
  Log2 fold-change of gene expression: HPRT1: 0.4
3rd listing (r147)
  Log2 fold-change of gene expression: RPL13A: 1.1
3rd listing (r148)
  Log2 fold-change of gene expression: GADPH: −0.3
3rd listing (r149)
  Log2 fold-change of gene expression: ACTB: −0.9
4th listing (r193)
  Log2 fold-change of gene expression: B2M: −0.8
4th listing (r194)
  Log2 fold-change of gene expression: HPRT1: 0.1
4th listing (r195)
  Log2 fold-change of gene expression: RPL13A: 0.6
4th listing (r196)
  Log2 fold-change of gene expression: GADPH: 0.4
4th listing (r197)
  Log2 fold-change of gene expression: ACTB: −0.1
